From patent US20230091810A1, “FIRST-IN-CLASS OF SHMT2 AND MTHFD2 INHIBITORS AS ANTITUMOR AGENTS” (Duquesne University of the Holy Spirit, priority 2017, published 2023)

Tests used:
[1] = tested on: human MIA PaCa-2 pancreatic adenocarcinoma xenografts; test: in vivo efficacy trial with MIA PaCa-2 pancreatic cancer xenografts; parameters: species or system SCID mice
Method: Female ICR SCID mice (10 weeks old; 19 g average body weight) were implanted bilaterally with human MIA PaCa-2 tumors. […] The mice were weighed and tumors were measured with a caliper two-to-three times weekly; mice were sacrificed when the cumulative tumor burden reached 1500 mg. Tumor weights were estimated from two-dimensional measurements, where tumor mass (in mg) = (a x b^2)/2, and a and b are the tumor length and width in mm, respectively. The tumor masses from both tumors on each mouse were added together, and the total mass per mouse was used for calculations of anti-tumor activity. Quantitative end-points include: (i) tumor growth delay [T-C, where T is the median time in days required for the treatment group tumors to reach a predetermined size (e.g., 1000 mg), and C is the median time in days for the control group tumors to reach the same size; tumor-free survivors are excluded from these calculations]; and (ii) T/C (in percent) when treatment (T) and control (C) groups for the control groups reached 700 mg in size (exponential growth phase). The median value of each group was determined (including zeros). Mouse weights were monitored as a gauge of drug toxicity.
Female ICR SCID mice (10 weeks old; 19 g average body weight) were implanted bilaterally with human MIA PaCa-2 PaC tumors.
In vivo efficacy trial with MIA PaCa-2 pancreatic cancer xenografts. Methods for in vivo maintenance of MIA PaCa-2 tumor xenografts and drug efficacy evaluations are analogous to those previously described (58, 62-67). MIA PaCa-2 human pancreatic cancer cells (5 × 10^6 cells/flank) were bilaterally implanted subcutaneously with tumor fragments (30-60 mg) with a 12-gauge trocar in female […] SCID mice (NCI Animal Production Program). The mice were 10 weeks old on day 0 (tumor implant) with an average body weight of 19 g. For the efficacy trial, the mice were maintained on either a folate-deficient diet from Harlan-Teklad (TD.00434) starting 14 days before subcutaneous tumor implant to ensure serum folate levels would approximate those of humans. A separate cohort of mice was fed a folate-replete control diet from Lab Diet (5021). Mice were supplied with food and water ad libitum. Serum folate concentrations were monitored prior to tumor implant and post study by Lactobacillus casei bioassay (68). The mice in each group (folate-deficient and standard diet) were pooled before unselective distribution to the treatment and control groups. […] The drugs were dissolved in 5% ethanol (v/v), 1% Tween-80 (v/v), and 0.5% NaHCO3 and were administered intravenously (0.2 ml/injection). The mice were weighed and tumors were measured with a caliper two-to-three times weekly; mice were sacrificed when the cumulative tumor burden reached 1500 mg. Tumor weights were estimated from two-dimensional measurements, where tumor mass (in mg) = (a × b^2)/2, and a and b are the tumor length and width in mm, respectively. The tumor masses from both tumors on each mouse were added together, and the total mass per mouse was used for calculations of anti-tumor activity. Quantitative end-points include: (i) tumor growth delay [T-C, where T is the median time in days required for the treatment group tumors to reach a predetermined size (e.g., 1000 mg), and C is the median time in days for the control group tumors to reach the same size; tumor-free survivors are excluded from these calculations]; and (ii) T/C (in percent) when treatment (T) and control (C) groups for the control groups reached 700 mg in size (exponential growth phase). The median value of each group was determined (including zeros). Mouse weights were monitored as a gauge of drug toxicity.

RT16 (FR alpha) (CHO) = test: proliferation assay, RT16 CHO cells expressing FR alpha only; type: cell-based, Chinese hamster; conditions: folate-/glycine-free RPMI1640 with 25 nM leucovorin; 96 h; read-out: IC50s (SE) RT16 (FR alpha) (CHO)
Method: (§1) Proliferation assays were performed with engineered Chinese hamster ovary (CHO) cell lines R2 (transporter-null), PC43-10 (expresses RFC only), RT16 (FRα only), and R2/PCFT4 (PCFT only) cultured in folate-/glycine-free RPMI1640 supplemented with 25 nM leucovorin. Additional results are shown for HCT116 (colon tumor cells (CTC)), IGROV1 (epithelial ovarian cancer (EOC) cells), H460 (non-small cell lung cancer (NSCLC) cells), MIAPaCa-2 (pancreatic cancer (PaC) cells), and HPAC (PaC).
(§2) For proliferation assays with the CHO cell lines, the cells were treated with drugs (0-1 µM) in a 96-well plate (2000 cells/well) in glycine-free, nucleoside-free folate-free RPMI supplemented with 10% dialyzed fetal bovine serum, 1% penicillin/streptomycin, 2 mM L-glutamine, and 25 nM leucovorin (final volume 200 µL) over a 96 h incubation period at 37° C. with 5% CO2. The drugs were dissolved in DMSO; an equivalent amount of DMSO was added to the control (no addition) samples. To quantify viable cells, the media was removed and plates were washed once with 100 µL Dulbecco’s Phosphate-Buffered Saline (PBS), after which 100 µL PBS and 20 µL Cell Titer-blue (Promega) were added. Relative cell numbers were proportional to the fluorescence measured with a fluorescence plate reader (590 nm emission, 560 nm excitation). Background fluorescence (cell-free wells treated with Cell Titer-blue) was subtracted and these corrected values were normalized to results for cells treated in an identical manner without drugs.

HPAC (PaC) = test: proliferation assay, HPAC pancreatic cancer cells; type: cell-based, human; conditions: folate-/glycine-free RPMI1640 with 25 nM leucovorin; read-out: IC50s (SE) HPAC (PaC)
Method: as §1
(§3) For proliferation assays of the HCT116, H460, and MIA PaCa2 tumor cell lines, the cells were plated in 96-well plates in an identical manner to the CHO experiments, except that the maximal drug concentration was increased to 10 µM. Glycine/nucleoside protection experiments in CHO and tumor cell lines were performed in folate- and glycine-free RPMI 1640/10% dialyzed fetal bovine serum supplemented with 25 nM leucovorin without additions, or in the presence of adenosine (60 µM), thymidine (10 µM), glycine (130 µM) and/or 5-aminoimidazole-4-carboxamide (AICA) (320 µM). Growth of metabolite-treated cells was normalized to controls treated with metabolites and vehicle (i.e., DMSO) both singly and in combination. Treatments with all metabolites were performed in parallel on the same plate for a given drug.

IGROV1 (EOC) = test: proliferation assay, IGROV1 epithelial ovarian cancer cells; type: cell-based, human; conditions: folate-/glycine-free RPMI1640 with 25 nM leucovorin; read-out: IC50s (SE) IGROV1 (EOC)
Method: as §1, §3

PC43-10 (RFC) (CHO) = test: proliferation assay, PC43-10 CHO cells expressing RFC only; type: cell-based, Chinese hamster; conditions: folate-/glycine-free RPMI1640 with 25 nM leucovorin; 96 h; drug 0-1000 nM; read-out: IC50s (SE) PC43-10 (RFC) (CHO)
Method: as §1
(§4) Cell culture and proliferation/protection assays. The HCT116 cell lines including the serine hydroxymethyltransferase (SHMT) 1, SHMT2, and methylene THF dehydrogenase 2 (MTHFD2) knockout (KO) cells were previously described (47,53). The H460 cell line was obtained from the American Type Culture Collection (Manassas, VA), whereas the MIA PaCa-2 cells were provided by Dr. Yubin Ge (Karmanos Cancer Institute). Cell lines were verified by STR analysis by Genetica DNA Laboratories (Burlington, NC). MTXRIIOua^R2-4 (i.e. R2) Chinese hamster ovary (CHO) cells were generously provided by Dr. Wayne Flintoff (University of Western Ontario) (54). From this parental R2 cell line, human RFC and PCFT were individually transfected to generate the isogenic CHO cell lines designated PC43-10 (RFC) and R2/PCFT4 (PCFT) (55-57). Human tumor cell lines were cultured in folate-free RPMI supplemented with 10% dialyzed fetal bovine serum (Sigma-Aldrich), 1% penicillin/streptomycin solution, 2 mM L-glutamine, and 25 nM leucovorin in a humidified atmosphere at 37° C. in the presence of 5% CO2 and 95% air. The CHO cell lines were cultured in alpha-minimal essential medium (alpha-MEM) supplemented with 10% bovine calf serum, 1% penicillin/streptomycin solution, and 2 mM L-glutamine. Additionally, the transfected CHO cell lines (i.e. R2/PCFT4 and PC43-10) were maintained under continuous selection with 1 mg/ml of G418.
as §2, with “The drugs were dissolved in DMSO; an equivalent amount of DMSO was added to the control (no addition) samples.” left out

MIA PaCa-2 (PaC) = test: proliferation assay, MIA PaCa-2 pancreatic cancer cells; type: cell-based, human; conditions: folate-/glycine-free RPMI1640 with 25 nM leucovorin; 96 h; read-out: IC50s (SE) MIA PaCa-2 (PaC)
Method: as §1, §4, §3

SHMT2 = biological target: T1, SHMT2 (Homo sapiens, UniProt P34897); test: in vitro inhibition of purified SHMT2, coupled SHMT2-MTHFD2 assay with NADH readout; conditions: purified N-terminally His-tagged enzyme; compounds as monoglutamates; * designates one experiment
T1 sequence (P34897 30-504): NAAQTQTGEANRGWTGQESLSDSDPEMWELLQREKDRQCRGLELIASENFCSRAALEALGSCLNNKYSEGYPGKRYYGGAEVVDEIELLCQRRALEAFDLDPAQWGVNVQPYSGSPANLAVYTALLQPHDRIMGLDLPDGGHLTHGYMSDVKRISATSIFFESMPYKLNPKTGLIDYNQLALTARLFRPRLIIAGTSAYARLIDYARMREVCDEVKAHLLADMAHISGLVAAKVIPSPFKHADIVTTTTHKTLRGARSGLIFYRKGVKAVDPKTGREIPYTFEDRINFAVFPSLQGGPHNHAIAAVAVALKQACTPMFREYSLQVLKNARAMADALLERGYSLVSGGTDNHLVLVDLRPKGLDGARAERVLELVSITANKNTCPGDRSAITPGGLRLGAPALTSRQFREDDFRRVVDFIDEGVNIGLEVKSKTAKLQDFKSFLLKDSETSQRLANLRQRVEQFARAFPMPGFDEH

H460 cells = test: glycine/nucleoside protection of growth inhibition in H460 cells; type: cell-based, human
Method: We also tested the protective effects of AICA (320 µM) which is metabolized to AICAR (ZMP) (AICARFTase substrate), thus circumventing the GARFTase step in de novo purine biosynthesis (27) (see FIG. 1). […] Analogous results were obtained with HCT116 and MIA PaCa-2 tumor cells (see FIG. 14).
as §3

[2] = IV, AGF291 Q6dx3 start d3, total 23.5 mg/kg, Gemcitabine Q4dx4 start d3, total 480 mg/kg

Nc1ccn([C@@H]2O[C@H](CO)[C@@H](O)C2(F)F)c(=O)n1 [Gemcitabine, reference compound]
Mean Body Weight Loss (g/mouse) [1, 2]: -2.4 g/mouse | Percent Body Weight Loss [1, 2]: -12.2% | median tumor burden on day 14 ([1]; day 14, control cohort 1321 mg): 255 mg | Median Tumor Burden in mg on d16 (range) ([1]; day 16, IV, AGF291 total 23.5 mg/kg, Gemcitabine total 480 mg/kg): 445 (150-527) mg | Tumor Free on d52 ([1]; day 52, mice tumor free/total): 0/5 | Tumor Growth Delay (T-C) ([1]; median T-C to reach 1000 mg, AGF291 total 23.5 mg/kg, Gemcitabine total 480 mg/kg): 7.5 days | Time to 1000 mg in days (range) ([1]; median, IV, AGF291 total 23.5 mg/kg, Gemcitabine total 480 mg/kg): 20 (19-21) days | weight loss (median nadir) ([1]; nadir on day 17 for AGF291, day 6 for GEM, completely reversible after cessation of therapy): 12% | T/C% ([1]; treated/control median tumor burden, AGF291 7.75 mg/kg/inj Q6dx3, GEM 120 mg/kg/inj every 4 days, start day 3): 26%

Nc1nc2ccn(CCCc3ccc(C(=O)N[C@@H](CCC(=O)O)C(=O)O)c(F)c3)c2c(=O)[nH]1 [AGF359]
IC50 (RT16 (FR alpha) (CHO)): 525 nM | IC50 (HPAC (PaC)): 167 nM | IC50 (IGROV1 (EOC)): 229 nM | IC50 (PC43-10 (RFC) (CHO)): 233 nM | IC50 (MIA PaCa-2 (PaC)): > 1000 nM

Nc1nc2[nH]c(CCCc3ccc(C(=O)N[C@@H](CCC(=O)O)C(=O)O)s3)cc2c(=O)[nH]1 [AGF94, reference compound]
Ki SHMT2 (SHMT2): no inhibition | protection from growth inhibition by AICA (H460 cells; AICA 320 µM): completely protective | protection from growth inhibition by adenosine (H460 cells; adenosine 60 µM, up to 10 µM drug): fully protective | protection from growth inhibition by glycine (H460 cells; glycine 130 µM): no effect
